Laboratory results published in patent US11555015B2, “Compounds useful in the treatment of autoimmune and inflammatory disorders” (Arena Pharmaceuticals, Inc., priority 2018, dated 2023).
One block for each compound: values may come before it.

Molecular target: S1P1 (Homo sapiens, UniProt P21453)
Assay: Beta arrestin assay (in vitro S1P1 activity)
Format: cell-based
Conditions: in vitro beta-arrestin agonist assay
Method: The in vitro S1P1 activity was determined in the beta arrestin assay.

S1P1, sequence (P21453 whole entry, species assumed): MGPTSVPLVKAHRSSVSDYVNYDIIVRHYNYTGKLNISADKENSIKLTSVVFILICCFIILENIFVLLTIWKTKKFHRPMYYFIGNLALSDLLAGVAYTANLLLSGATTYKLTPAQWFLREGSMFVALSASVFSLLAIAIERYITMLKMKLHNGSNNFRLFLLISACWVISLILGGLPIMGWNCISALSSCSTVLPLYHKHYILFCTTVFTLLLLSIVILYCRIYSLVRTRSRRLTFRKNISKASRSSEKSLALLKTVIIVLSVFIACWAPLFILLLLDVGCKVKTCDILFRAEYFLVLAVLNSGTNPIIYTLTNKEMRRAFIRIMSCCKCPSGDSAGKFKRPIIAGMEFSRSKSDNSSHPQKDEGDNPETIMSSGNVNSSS

SMILES: O=C(O)CC1CCc2c1[nH]c1ccc(OCc3ccc(C4CCC(O)C4)c(C(F)(F)F)c3)cc21 (single isomer, unassigned) [Compound 2-1, 2-(7-((4-(3-Hydroxycyclopentyl)-3-(trifluoromethyl)benzyl)oxy)-1,2,3,4-tetrahydrocyclopenta[b]indol-3-yl)acetic Acid]
EC50: 0.0521 µM

SMILES: O=C(O)CC1CCc2c1[nH]c1ccc(OCc3ccc(C4CCC(O)C4)c(C(F)(F)F)c3)cc21 (single isomer, unassigned) [Compound 2-2, 2-(7-((4-(3-Hydroxycyclopentyl)-3-(trifluoromethyl)benzyl)oxy)-1,2,3,4-tetrahydrocyclopenta[b]indol-3-yl)acetic Acid]
EC50: 0.0856 µM

SMILES: O=C(C[C@H]1CCc2c1[nH]c1ccc(OCc3ccc(C4CCCC4)c(C(F)(F)F)c3)cc21)OC1O[C@H](C(=O)O)[C@@H](O)[C@H](O)[C@H]1O (stereo partly drawn) [Compound 1, (2S,3S,4S,5R)-6-(2-((R)-7-((4-cyclopentyl-3-(trifluoromethyl)benzyl)oxy)-1,2,3,4-tetrahydrocyclopenta[b]indol-3-yl)acetoxy)-3,4,5-trihydroxytetrahydro-2H-pyran-2-carboxylic acid]
EC50: 0.0039 µM

Next, values leading:

EC50: 0.00366 µM
SMILES: O=C(O)CC1CCc2c1[nH]c1ccc(OCc3ccc(C4CCCC4O)c(C(F)(F)F)c3)cc21 (mixture of isomers) [Compound 4, 2-(7-((4-(2-hydroxycyclopentyl)-3-(trifluoromethyl)benzyl)oxy)-1,2,3,4-tetrahydrocyclopenta[b]indol-3-yl)acetic acid]

EC50: 0.0167 µM
SMILES: O=C(O)CC1CCc2c1[nH]c1ccc(OCc3ccc(C4CCCC4O)c(C(F)(F)F)c3)cc21 (centres unmarked) [Compound 4-1, 2-(7-((4-(2-Hydroxycyclopentyl)-3-(trifluoromethyl)benzyl)oxy)-1,2,3,4-tetrahydrocyclopenta[b]indol-3-yl)acetic Acid]
